According to patent publication US9346761B2, “Arginine methyltransferase inhibitors and uses thereof” (Epizyme, Inc., priority 2013, dated 2016):

Target: T1, Full-length human PRMT6 (Homo sapiens, UniProt Q96LA8)
T1 construct: Flag-PRMT6-His was eluted with 200 ug/ml FLAG peptide in the same buffer; made in house; host or cells: HEK 293F cells (BacMam virus, pFastBacMam)
Experiment: PRMT6 biochemical assay (3H-SAM Flashplate, peptide substrate)
Procedure, shortened: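 Read-out is 3H-methylated histone H4 (36-50) peptide bound to streptavidin Flashplates after a cold-SAM stop. Baculovirus-expressed Flag-PRMT6-His met compound for 30 min at room temperature before SAM and peptide; Bicine pH 7.6 buffer. IC50 fitted to % inhibition normalized to SAH (min) and DMSO (max).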

T1 sequence (Q96LA8 with tags, fused parts or gaps): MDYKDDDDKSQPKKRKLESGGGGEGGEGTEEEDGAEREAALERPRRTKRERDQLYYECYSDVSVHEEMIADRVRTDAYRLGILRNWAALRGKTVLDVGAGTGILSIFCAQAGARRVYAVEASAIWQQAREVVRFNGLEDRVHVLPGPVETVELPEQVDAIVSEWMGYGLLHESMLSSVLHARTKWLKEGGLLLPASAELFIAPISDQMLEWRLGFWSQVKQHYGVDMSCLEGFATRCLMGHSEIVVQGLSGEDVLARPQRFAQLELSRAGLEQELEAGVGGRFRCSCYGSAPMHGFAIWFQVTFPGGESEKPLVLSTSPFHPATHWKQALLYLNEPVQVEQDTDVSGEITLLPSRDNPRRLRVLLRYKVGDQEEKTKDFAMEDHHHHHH

COCCn1cc(CN(C)CCN)c(-c2ccc(F)cc2)n1 [Compound 5] and COCCn1ncc(CN(C)CCN)c1-c1ccc(F)cc1 [Compound 6] fall in the same range of IC50: 0.101 to 1 µM for the first, 0.101 to 1 µM for the second.

First: CCn1ncc(CN(C)CCNC)c1-c1ccc(F)cc1 [Compound 7]
Second: CCn1cc(CN(C)CCNC)c(-c2ccc(F)cc2)n1 [Compound 8]
The IC50 of the first is lower: under 0.1 µM for the first, 0.101 to 1 µM for the second. The first is the more potent here.

CN(CCN)Cc1c[nH]nc1-c1ccc(Cl)cc1 [Compound 95] and Cc1ccc(-c2n[nH]cc2CN(C)CCN)cc1 [Compound 162] cannot be ordered by IC50: under 0.1 µM for the first, under 0.1 µM for the second.

CN(CCN)Cc1c[nH]nc1-c1ccc(OCC(F)(F)F)cc1 [Compound 96] and CCOc1ccc(-c2n[nH]cc2CN(C)CCN)cc1 [Compound 166] cannot be ordered by IC50: under 0.1 µM for the first, under 0.1 µM for the second.

CC(C)Oc1ccc(-c2n[nH]cc2CN(C)CCN)cc1F [Compound 97] and COc1ccc(-c2n[nH]cc2CN(C)CCN)cc1F [Compound 134] cannot be ordered by IC50: under 0.1 µM for the first, under 0.1 µM for the second.

CN(CCN)Cc1c[nH]nc1-c1ccc(C2CCOCC2)cc1 [Compound 98] and CN(CCN)Cc1c[nH]nc1-c1ccc(C2CC2)cc1 [Compound 116] cannot be ordered by IC50: under 0.1 µM for the first, under 0.1 µM for the second.

CN(CCN)Cc1c[nH]nc1-c1ccc(F)cc1F [Compound 99] and Cc1ccc(-c2n[nH]cc2CN(C)CCN)c(F)c1 [Compound 108] cannot be ordered by IC50: under 0.1 µM for the first, under 0.1 µM for the second.

CN(CCN)Cc1n[nH]cc1-c1ccc(C#N)cc1 [Compound 100] and CN(CCN)Cc1n[nH]cc1-c1ccc(Cl)cc1 [Compound 102] cannot be ordered by IC50: under 0.1 µM for the first, under 0.1 µM for the second.

First: CC(C)c1ccc(-c2c[nH]nc2CN(C)CCN)cc1 [Compound 101]
Second: CC(C)Cc1ccc(-c2c[nH]nc2CN(C)CCN)cc1 [Compound 170]
The IC50 of the first is higher: 0.101 to 1 µM for the first, under 0.1 µM for the second. The second is the more potent here.

CN(CCN)Cc1n[nH]cc1-c1ccc(C(F)(F)F)cc1 [Compound 103] and CN(CCN)Cc1n[nH]cc1-c1ccc(OC(F)(F)F)cc1 [Compound 105] cannot be ordered by IC50: under 0.1 µM for the first, under 0.1 µM for the second.

CN(CCN)Cc1n[nH]cc1-c1ccc(C2CC2)cc1 [Compound 104] and CN(CCN)Cc1n[nH]cc1-c1ccc(C2CCOCC2)cc1 [Compound 145] cannot be ordered by IC50: under 0.1 µM for the first, under 0.1 µM for the second.

CN(CCN)Cc1c[nH]nc1-c1cc(F)ccc1Cl [Compound 106] and Cc1ccc(F)cc1-c1n[nH]cc1CN(C)CCN [Compound 159] cannot be ordered by IC50: under 0.1 µM for the first, under 0.1 µM for the second.

COc1ccc(-c2n[nH]cc2CN(C)CCN)c(F)c1 [Compound 107] and COc1ccc(-c2n[nH]cc2CN(C)CCN)c(Cl)c1 [Compound 146] cannot be ordered by IC50: under 0.1 µM for the first, under 0.1 µM for the second.

First: COc1ccccc1-c1n[nH]cc1CN(C)CCN [Compound 109]
Second: Cc1ccccc1-c1n[nH]cc1CN(C)CCN [Compound 161]
The IC50 of the first is higher: 0.101 to 1 µM for the first, under 0.1 µM for the second. The second is the more potent here.

Compared with Cc1cc(C#N)ccc1-c1n[nH]cc1CN(C)CCN [Compound 110], Cc1ccc(C#N)cc1-c1n[nH]cc1CN(C)CCN [Compound 158] is higher in IC50: under 0.1 µM for the first, 0.101 to 1 µM for the second. The first is the more potent here.

CN(CCN)Cc1c[nH]nc1-c1cc(F)cc(F)c1 [Compound 111] and CN(CCN)Cc1c[nH]nc1-c1cc(F)cc(Cl)c1 [Compound 121] cannot be ordered by IC50: under 0.1 µM for the first, under 0.1 µM for the second.

CC(=O)c1cccc(-c2n[nH]cc2CN(C)CCN)c1 [Compound 112] and CCOC(=O)c1cccc(-c2n[nH]cc2CN(C)CCN)c1 [Compound 150] cannot be ordered by IC50: under 0.1 µM for the first, under 0.1 µM for the second.

First: CN(CCN)Cc1cnn(CC(O)CO)c1-c1ccc(F)cc1 (stereo not shown) [Compound 113]
Second: NCCN(CCO)Cc1c[nH]nc1-c1ccc(F)cc1 [Compound 171]
The IC50 of the first is lower: 0.101 to 1 µM for the first, 1.01 to 3 µM for the second.

CN(CCN)Cc1c[nH]nc1-c1ccc(OC2CC2)cc1 [Compound 114] and CN(CCN)Cc1n[nH]cc1-c1ccc(OC2CC2)cc1 [Compound 119] cannot be ordered by IC50: under 0.1 µM for the first, under 0.1 µM for the second.

CC(O)c1ccc(-c2n[nH]cc2CN(C)CCN)cc1 (stereo not shown) [Compound 115] and COc1ccc(-c2n[nH]cc2CN(C)CCN)cc1 [Compound 153] cannot be ordered by IC50: under 0.1 µM for the first, under 0.1 µM for the second.

CN(CCN)Cc1c[nH]nc1-c1ccc(C(F)(F)F)c(Cl)c1 [Compound 117] and CN(CCN)Cc1c[nH]nc1-c1ccc(C(F)(F)F)c(F)c1 [Compound 141] cannot be ordered by IC50: under 0.1 µM for the first, under 0.1 µM for the second.

CN(CCN)Cc1c[nH]nc1-c1ccc(Cl)c(F)c1 [Compound 118] and CN(CCN)Cc1c[nH]nc1-c1ccc(F)c(Cl)c1 [Compound 124] cannot be ordered by IC50: under 0.1 µM for the first, under 0.1 µM for the second.

CN(CCN)Cc1c[nH]nc1-c1cccc(Cl)c1 [Compound 122] and Cc1cccc(-c2n[nH]cc2CN(C)CCN)c1 [Compound 131] cannot be ordered by IC50: under 0.1 µM for the first, under 0.1 µM for the second.

CN(CCN)Cc1c[nH]nc1-c1cccc(Cl)c1F [Compound 123] and Cc1c(F)cccc1-c1n[nH]cc1CN(C)CCN [Compound 129] cannot be ordered by IC50: under 0.1 µM for the first, under 0.1 µM for the second.

COc1ccc(-c2n[nH]cc2CN(C)CCN)cc1Cl [Compound 125] and Cc1ccc(-c2n[nH]cc2CN(C)CCN)cc1Cl [Compound 126] cannot be ordered by IC50: under 0.1 µM for the first, under 0.1 µM for the second.

COc1cc(Cl)cc(-c2n[nH]cc2CN(C)CCN)c1 [Compound 127] and CN(CCN)Cc1c[nH]nc1-c1cc(Cl)cc(Cl)c1 [Compound 137] cannot be ordered by IC50: under 0.1 µM for the first, under 0.1 µM for the second.

Compared with CN(CCN)Cc1cn(CC2CCOCC2)nc1-c1ccc(F)cc1 [Compound 128], CN(CCN)Cc1c[nH]nc1-c1ccc(OCCN2CCOCC2)cc1 [Compound 172] is lower in IC50: 1.01 to 3 µM for the first, under 0.1 µM for the second. The second is the more potent here.

COc1cccc(-c2n[nH]cc2CN(C)CCN)c1 [Compound 130] and CN(CCN)Cc1c[nH]nc1-c1cccc(N(C)C)c1 [Compound 149] cannot be ordered by IC50: under 0.1 µM for the first, under 0.1 µM for the second.

CN(CCN)Cc1c[nH]nc1-c1ccc(Cl)cc1F [Compound 132] and CN(CCN)Cc1c[nH]nc1-c1cc(Cl)ccc1F [Compound 156] cannot be ordered by IC50: under 0.1 µM for the first, under 0.1 µM for the second.

Cc1cc(Cl)ccc1-c1n[nH]cc1CN(C)CCN [Compound 133] and Cc1cc(F)ccc1-c1n[nH]cc1CN(C)CCN [Compound 152] cannot be ordered by IC50: under 0.1 µM for the first, under 0.1 µM for the second.

CN(CCN)Cc1c[nH]nc1-c1ccc(C(F)(F)F)cc1Cl [Compound 135] and CN(CCN)Cc1c[nH]nc1-c1ccc(C(F)(F)F)cc1F [Compound 148] cannot be ordered by IC50: under 0.1 µM for the first, under 0.1 µM for the second.

CCNC(=O)c1ccc(-c2n[nH]cc2CN(C)CCN)cc1 [Compound 136] and CCN(C)C(=O)c1ccc(-c2n[nH]cc2CN(C)CCN)cc1 [Compound 163] cannot be ordered by IC50: under 0.1 µM for the first, under 0.1 µM for the second.

CN(CCN)Cc1n[nH]cc1-c1ccc(OC(F)F)cc1 [Compound 138] and CC(C)Oc1ccc(-c2c[nH]nc2CN(C)CCN)cc1F [Compound 144] cannot be ordered by IC50: under 0.1 µM for the first, under 0.1 µM for the second.

Compared with CN(CCN)Cc1c[nH]nc1-c1ccccc1C#N [Compound 140], CN(CCN)Cc1c[nH]nc1-c1cc(C#N)ccc1Cl [Compound 147] is lower in IC50: 1.01 to 3 µM for the first, under 0.1 µM for the second.

First: COc1cc(-c2n[nH]cc2CN(C)CCN)ccc1F [Compound 142]
Second: COc1cc(F)ccc1-c1n[nH]cc1CN(C)CCN [Compound 151]
The IC50 of the first is lower: under 0.1 µM for the first, 0.101 to 1 µM for the second.

First: CCN(CC)C(=O)c1ccc(-c2n[nH]cc2CN(C)CCN)cc1 [Compound 143]
Second: CC(C)CN(C)C(=O)c1ccc(-c2n[nH]cc2CN(C)CCN)cc1 [Compound 164]
The IC50 of the first is higher: 0.101 to 1 µM for the first, under 0.1 µM for the second. The second is the more potent here.

Compared with COc1ccc(-c2n[nH]cc2CN(C)CCN)c(C(F)(F)F)c1 [Compound 154], COc1ccc(-c2n[nH]cc2CN(C)CCN)c(C)c1 [Compound 155] is lower in IC50: 0.101 to 1 µM for the first, under 0.1 µM for the second.

COc1ccc(Cl)cc1-c1n[nH]cc1CN(C)CCN [Compound 157] and COc1ccc(F)cc1-c1n[nH]cc1CN(C)CCN [Compound 160] fall in the same range of IC50: 0.101 to 1 µM for the first, 0.101 to 1 µM for the second.

COCCOc1ccc(-c2n[nH]cc2CN(C)CCN)cc1 [Compound 167] and CN(CCN)Cc1c[nH]nc1-c1ccc2c(c1)NC(=O)CO2 [Compound 173] cannot be ordered by IC50: under 0.1 µM for the first, under 0.1 µM for the second.

In the case of Cc1[nH]nc(-c2ccc(F)cc2)c1CN(C)CCN [Compound 169], the IC50 is reported as under 0.1 µM.
